Assay results as given in patent publication US20260083126A1, “ANTIMICROBIAL COMPOSITIONS” (AHV International B.V., priority 2022, published 2026).
Values after ≈ are worked out from the molar mass of the structure shown. Values joined by “and” are separate entries in the source; they are usually repeats but may differ in a detail not shown here. Equal entries are not always repeated. Where two headings read alike, the source gives them in different places.

Legend:
[1] = system: Staphylococcus epidermidis ATCC 35984; test: MIC assay (growth inhibition of planktonic microorganisms); type: cell-based; settings: 24 h at 37° C., MHB-II; for S. epidermidis MIC50 / MIC50: reduction of final OD600 by 50%; for S. epidermidis MIC90 / MIC90: reduction of final OD600 by 90%; for MIC50 / MIC90: Staphylococcus epidermidis, ATCC35984; for MIC50: read-out: S. epidermidis MIC50; for MIC90: read-out: S. epidermidis MIC90
Description: (§1) The exact weighed amount was noted and the volume of solvent to reach a 80 mM dilution calculated. Half of the volume was added first, by adding Tween 80 and let stand for 5 minutes. In a second step, the other half of the volume DMSO was added and resuspended to help the dilution process. The closed tube was inverted 5-10 times and then vortexed very thoroughly for at least 30 seconds. If after this procedure crystals were still visible, the tube was placed in a shaker at 37° C. at 150 rpm for at least 30 minutes (it is indicated if the dissolution period was longer than 2 h). […] In case of Bis(4-Chlorophenyl) thiosulfonate, a lower concentrated stock solution of 2 mM needed to be prepared. For that, the required amount of compound was weighed in and 2% v/v Tween80 and 2% v/v DMSO of the end volume of the stock solution was added to the substance. This mix was heated in a water bath set to 40° C. and occasionally shaken. When the whole amount of the substance reached dissolution, the volume was filled up with growth medium until the end volume. This 2 mM stock solution of Bis(4-Chlorophenyl) thiosulfonate was used in the MIC plate and diluted two-fold, resulting in a testing range of Bis(4-Chlorophenyl) thiosulfonate from 1 mM to 0.002 mM.
(§2) The microorganisms as indicated in Table 4 were used to inoculate a tryptic soy agar (TSA) plate and incubated overnight at 37° C. After incubation 3-5 well-isolated colonies with the same morphology were selected from the TSA plate and resuspended in 2 mL 0.9% saline solution with 3-6 glass beads and vortexed. The optical density at 600 nm (OD600) of the bacterial suspension was measured with a spectrophotometer (Evolution™ 201/220 UV-Visible Spectrophotometer, Thermo Fisher Scientific) and diluted to an OD600 of 0.0008, which resembles 10^6 CFU/mL.
(§3) The MIC assay was performed in a flat-bottom 96-microtiter plate. 50 μL of MHB-II was added into columns 2-11, and 100 μL to column 12 for sterility control. 100 μL of the 8 mM test compound solution (method 1) was added to column 1. A two-fold dilution series of the solution in MHB-II was achieved by resuspending 50 μL of the 8 mM solution from column 1 to column 2. This step was repeated until column 10. The respective concentration of Tween 80 and DMSO in column 1 was 2.5%, which is two-fold diluted throughout the plate. 50 μL of the bacterial suspension was added to column 1-11. The microtiter plates were sealed with adhesive polyethylene film for sealing microplates (Diversified Biotech) and incubated for 24 h at 37° C. After incubation the OD was measured at 600 nm with the Varioskan (Thermo Fisher Scientific). The minimal concentration which causes reduction of final OD600 of the bacterial culture by 50% (MIC50) and by 90% (MIC90) was calculated after normalization of the obtained OD values to the growth control in column 11. This assay was repeated three times in three independent experiments.

[2] = system: Pseudomonas aeruginosa ATCC 27853; test: as above; type: cell-based; settings: for P. aeruginosa MIC50 / MIC50: reduction of final OD600 by 50%; for MIC50 / MIC90: Pseudomonas aeruginosa; for MIC50: ATCC27853, 24 h, read-out: P. aeruginosa MIC50; for MIC90: ATCC27853
Description: as §1, §2, §3
Hereafter, the stock solutions of the compounds were used in three repetitions in a minimal inhibitory concentration (MIC) assay at a 2-fold dilution range with various bacteria from the gram-positive and gram-negative group and a yeast, Candida albicans. The concentrations that show only less than 10% growth after 24 h were considered the MIC90-values, whereas the concentrations that show 50% growth after 24 h when compared to the bacterial growth control were considered the MIC50-values. Escherichia coli and Staphylococcus aureus were used as representatives for a gram-negative bacteria and gram-positive bacteria, respectively. Furthermore, the yeast C. albicans was also tested.
In an Eppendorf tube between 10-20 mg of the test compound was weighed. Hereafter, the required amount of Tween 80 was added, followed by the amount DMSO. After vigorous shaking, the dissolved and transparent dilutions were diluted 10 times with Mueller Hinton Broth (MHB) for the MIC assay. […]

[3] = system: Staphylococcus epidermis ATCC 35984 biofilm; test: MBEC assay (48 h biofilm, CFU log reduction); type: cell-based, Staphylococcus epidermidis; settings: 20 h treatment, 0.125-1 mM tested
Description: (§4) For the MBEC assay (method 1.3) the solutions need to be diluted to a final concentration of 2 mM in 0.9% saline solution and then further diluted to 1 mM, 0.5 mM, 0.25 mM and 0.125 mM in saline. Those dilutions were added as treatment to the 96 well plates with the grown biofilm (see method 3) (0.5 mL needed for one strain). The dilution must stay transparent.
(§5) Frozen aliquots of Staphylococcus epidermis ATCC 35984 and Pseudomonas aeruginosa ATCC 27853 were used to inoculate 20 mL of Tryptic Soy Broth (TSB) in a 100 mL Erlenmeyer flask at 37° C. and 150 rpm and incubated overnight (Infors). The OD600 of the overnight culture was measured with a spectrophotometer (Evolution™ 201/220 UV-Visible Spectrophotometer, Thermo Fisher Scientific) and diluted to an ( ) 600 of 0.2, which resembles 10^8 CFU/mL. The cell suspension of OD600=0.2 was seeded into a U-bottom-shaped 96 well plates by pipetting 100 μL per well in column 1-11, column 12 was filled with 100 μL medium as sterility control. The 96 well plates were sealed with adhesive polyethylene film for sealing microplates and incubated for 48 h at 37° C. at static conditions. After the biofilm growth phase, 100 μL of treatment solutions (method 1) were added to the vials resulting in treatment concentrations of 1 mM, 0.5 mM, 0.25 mM and 0.125 mM and with the respective concentration of Tween 80 and DMSO each at 0.63%, 0.32%, 0.16% and 0.08%. The same concentration was applied to four different wells of the same bacterial strain, resulting in four replicates for each concentration and strain. The treatment was incubated for 20 h at 37° C. at static conditions. After the treatment the supernatant was carefully removed and the well with the biofilm washed carefully for one time with 200 μL 0.9% saline solution. 200 μL saline solution was added and the biofilm was resuspended thoroughly. When fully homogenized then 20 μl, was used for the first dilution in 180 μL 0.9% saline solution, which was prepared in a second plate. This dilution was continued until dilution step 10E-5 and 100 μL of the 10E-4 and 10E-5 dilution plated on a TSA plate. The TSA plates were incubated at 37° C. for 24 h. The colonies on the plates were enumerated, the colony forming units per ml, of the dispensed biofilm and averages thereof and the log reduction in comparison with the untreated sample from the same wells plate calculated. Reduction of colony forming units goes hand in hand with the thickness of the biofilm and thus with the number bacteria that are present in the biofilm. Therefore, a significant reduction of colony forming units in the biofilm was defined at the value of log reduction >1 or more. This assay was repeated two times in two independent experiments)

[4] = system: Pseudomonas aeruginosa ATCC 27853 biofilm; test: MBEC assay (48 h biofilm, CFU log reduction); type: cell-based; settings: 20 h treatment, 0.125-1 mM tested
Description: as §4, §5

[5] = reduction of final OD600 by 90%, 24 h at 37° C., MHB-II
[6] = reduction of final OD600 by 90%, 24 h at 37° C., MHB-II, read-out: P. aeruginosa MIC90

SMILES	S. epidermidis MIC50 [1]	S. epidermidis MIC90 [1]	P. aeruginosa MIC50 ([2]; 24 h at 37° C., MHB-II)	P. aeruginosa MIC90 [2, 5]	S. epidermidis MBEC mM with log reduction ≥1 [3]	P. aeruginosa MBEC mM with log reduction ≥1 [4]	MIC50 [1]	MIC90 [1]	MIC50 ([2]; 24 h at 37° C., MHB-II)	MIC90 [2, 6]	MIC90 ([2]; Example 2b, FIG. 1, no MIC90 detected in the tested range, read-out: Average MIC90 P. aeruginosa (Pa))
[O-][S+](Sc1ccc(F)cc1)c1ccc(F)cc1 (centres unmarked) [Bis (4-fluorophenyl) thiosulfinate, Bis(4-fluorophenyl) thiosulfinate]	125 µM and 130 µM	250 µM	1000 µM	4000 µM	>1 mM	>1 mM					
CCCSS(=O)(=O)CCC [Di-n-propyl thiosulfonate, reference compound]	250 µM	250 µM	250 µM	250 µM	0.25 mM	1 mM					
CC(C)SS(=O)(=O)C(C)C [Di-isopropyl thiosulfonate]	2000 µM	2000 µM	2000 µM	2000 µM	>1 mM	>1 mM					
Clc1ccc(SSc2ccc(Cl)cc2)cc1 [Bis (4-chlorophenyl) disulfide, Bis(4-chlorophenyl) disulfide]					>1 mM	>1 mM	10 µM (≈ 2.87 µg/mL)	30 µM (≈ 8.62 µg/mL)	20 µM (≈ 5.74 µg/mL)	30 µM (≈ 8.62 µg/mL)	
O=S(=O)(Sc1ccc(Cl)cc1)c1ccc(Cl)cc1 [Bis (4-chlorophenyl) thiosulfonate, Bis(4-chlorophenyl) thiosulfonate]	30 µM	60 µM	250 µM	2000 µM	>1 mM	>1 mM					
Fc1ccc(SSc2ccc(F)cc2)cc1 [Bis (4-fluorophenyl) disulfide, Bis(4-fluorophenyl) disulfide]			130 µM		>1 mM	>1 mM	60 µM (≈ 15.3 µg/mL)	60 µM (≈ 15.3 µg/mL)	125 µM (≈ 31.8 µg/mL)	250 µM (≈ 63.6 µg/mL)	> 4000 µM
O=S(=O)(Sc1ccc(F)cc1)c1ccc(F)cc1 [Bis (4-fluorophenyl) thiosulfonate, Bis(4-fluorophenyl) thiosulfonate]	250 µM	2000 µM	2000 µM	2000 µM	>1 mM	>1 mM					
CCCSSCCC [Di-n-propyl disulfide, reference compound]					>1 mM	>4 mM	> 4000 µM	> 4000 µM	> 4000 µM	> 4000 µM	
